Experiments:
[1] = target: T1, Aβ (Homo sapiens, UniProt P05067); assay: Binding of growth factors to Aβ; settings: among NGF, bFGF, PDGF, VEGF and midkine
T1 construct: Aβ (Aβ) is the major component of senile plaques and is derived from the amyloid precursor protein by proteolytic cleavage

[2] = target: T2, Aβ1-40 (Homo sapiens, UniProt P05067); assay: Effect of VEGF on the aggregation rate of Aβ, FITC-Aβ1-40 fluorescence in pellet; type: biochemical; settings: VEGF 1 μM; 50 μM and 100 μM Aβ1-40; 37° C.
T2 construct: Aβ1-40, Aβ1-42, and Aβ40-1 (BACHEM, Bubendorf, Switzerland) were immobilized on a CM5 sensor chip; purchased BACHEM

[3] = target: T3, Aβ1-42 (Homo sapiens, UniProt P05067); assay: Thioflavin T assay of Aβ aggregation; type: biochemical; settings: 50 μM Aβ1-42, 37° C., 24 hours; VEGF or GST-HBD at various concentrations
T3 construct: Aβ1-40, Aβ1-42, and Aβ40-1 (BACHEM, Bubendorf, Switzerland) were immobilized on a CM5 sensor chip; purchased BACHEM
Description: 10 μM of thioflavin T was added to the mixture and sufficiently mixed. Then, the fluorescence of the mixture was measured at Ex=444 nm and Em=485 nm, and then, compared with that of control of Aβ incubated alone, to determine the affection on aggregation of Aβ.
50 μM Aβ was incubated at 37° C. for 24 hours together with triamterene of 0 μM, 4 μM, 20 μM or 100 μM, respectively, to generate aggregation of Aβ. Then, the degree of aggregation was determined by the thioflavin T assay as illustrated in Example 11.

[4] = target: T4, Aβ/VEGF co-aggregate (Homo sapiens, UniProt P05067); assay: Dissociation assay of VEGF from Aβ/VEGF co-aggregate; type: binding; settings: after 3 days; 50 mM MES, pH 5.8
T4 construct: purchased BACHEM (Aβ peptides); Amersham Pharmacia Biotech (125I-VEGF)
Description: The radioactivity in the supernate was determined. […] The mixtures were separated by SDS-PAGE (10%) and autoradiographed.

[5] = target: T2, Aβ1-40; assay: 125I-VEGF competition binding to immobilized Aβ peptide in microtiter wells; settings: read-out: dissociation constant (KD) of VEGF for Aβ; immobilized Aβ1-40; 50 pM 125I-VEGF with increasing unlabeled VEGF; KD=IC50-[125I-VEGF]
[6] = target: T5, pre-aggregated Aβ1-40 (Homo sapiens, UniProt P05067); assay: Binding of 125I-VEGF to pre-aggregated Aβ, immediate centrifugation; settings: 50 μM Aβ preincubated for 2 days, 1 nM 125I-VEGF, immediately centrifuged
T5 construct: Aβ1-40, Aβ1-42, and Aβ40-1 (BACHEM, Bubendorf, Switzerland) were immobilized on a CM5 sensor chip; purchased BACHEM
Description: (§1) The aggregation of Aβ1-40 was determined as described with some modifications (Chang et al., Brain Res Brain Res Protoc 2000;6(1-2):6-12). After a two day incubation of Aβ1-40 (100 μM) with FITC-conjugated Aβ1-40 (1 μM) in 50 mM MES, pH 5.8, at 37° C., the mixture was centrifuged, and fluorescence in the pellet was measured. […] Then the mixtures were centrifuged and radioactivity in pellet was determined in a gamma-counter. […] The radioactivity in the pellet was determined.

[7] = tested on: PC12 cells; assay: DCF fluorescence, generation of reactive oxygen species by Aβ; type: cell-based; settings: PC12 cells 3 hours
Description: 5 μM VEGF165 or 5 μM GST-HBD and 5 μM Aβ1-42 were mixed and incubated at 37° C. for 24 hours. The mixture was added to PC12 cells (6×10^4, cells/well, kindly provided by Dr. Pann-Ghill Suh), and then left for reaction at 37° C. for 3 hours. Then, 100 μM of DCF solution was added to the resulted mixture, reacted for 30 minutes, and then washed with PBS (phosphate-buffered saline). The obtained cells were observed through a fluorescent microscope, and DCF fluorescence was measured, to calculate the level of generation of the reactive oxygen species.

[8] = target: T2, Aβ1-40; assay: Surface plasmon resonance binding to Aβ peptide on CM5 sensor chip; settings: 100 nM protein; versus alpha2-macroglobulin, alpha1-antichymotrypsin, serum amyloid P component, apolipoprotein E4
Description: (§2) Aβ1-40, Aβ1-42, and Aβ40-1 (BACHEM, Bubendorf, Switzerland) were immobilized on a CM5 sensor chip (BIAcore AB, Uppsala, Sweden) with an amine coupling kit. Alpha2-macroglobulin, alpha1-antichymotrypsin, serum amyloid P component, apolipoprotein E4, and VEGF165 (100 nM) were allowed to bind to the immobilized Aβ at a flow rate of 10 μl/min and sensorgrams were recorded in real time.

[9] = target: T3, Aβ1-42; assay: as above; settings: 100 nM protein; versus alpha2-macroglobulin, alpha1-antichymotrypsin, serum amyloid P component, apolipoprotein E4
Description: as §2

[10] = Keyt et al., J. Biol. Chem. 1996; cited from earlier work
[11] = target: T6, immobilized Aβ aggregate (Homo sapiens, UniProt P05067); assay: In vitro VEGF trapping on immobilized Aβ aggregate; type: binding; settings: 50 μM Aβ aggregated 24 hours and dried on well; radiolabeled VEGF; no inhibitor
T6 construct: Aβ (Aβ) is the major component of senile plaques and is derived from the amyloid precursor protein by proteolytic cleavage
Description: The system is simulating VEGF trapping on Aβ plaques under in vitro condition. In the in vitro assay system, 50 μM of Aβ was aggregated at 37° C. for 24 hours and immobilized on the bottom of a well by drying under air for overnight, and then, VEGF labeled with a radioisotope was added to the well, to form VEGF-Aβ binding. After removing unbound VEGF, bound VEGF was determined by measuring radioactivity. […] If certain chemical has inhibitory activity against VEGF-Aβ binding, then the chemical will decrease the amount of VEGF trapped on immobilized Aβ aggregate.

[12] = tested on: Aβ40-1; settings: 100 μM Aβ40-1, 1 nM 125I-VEGF165, 37° C., 2 days; P=0.0076
Description: as §1

[13] = tested on: Aβ40-1
Description: as §2

[14] = target: T2, Aβ1-40; assay: Co-aggregation assay of 125I-VEGF165 with Aβ, radioactivity in pellet; type: binding; settings: 100 μM Aβ1-40, 1 nM 125I-VEGF165, 37° C., 2 days; approximately 60% of Aβ alone in pellet
Description: as §1

Sequence of Aβ40-1 (as listed by the source): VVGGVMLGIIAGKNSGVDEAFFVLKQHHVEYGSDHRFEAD

binding of growth factor to Aβ [1]: bound to A | influence of VEGF on the aggregation of Aβ1-40 (time course) [2]: no significant influence | VEGF released from the Aβ/VEGF complex [4]: less than 1.5% | Kd [5]: ~0.05 nM | binding of VEGF to pre-aggregated Aβ (pelleted by centrifugation) [6]: bound to pre-aggregated Aβ | VEGF trapping into Aβ, share of VEGF added [11]: about 70% | binding to Aβ40-1 (reverse peptide) [13]: did not bind | proportion of 125I-VEGF in the pellet after incubation with Aβ1-40 [14]: About the same proportion
Substance: VEGF
inhibition of aggregation of Aβ (thioflavin T) [3]: inhibit aggregation of Aβ depending on the concentration | generation of the reactive oxygen species, treatment alone ([7]; 5 μM VEGF165 or 5 μM GST-HBD alone): no effect on the generation of the reactive oxygen species | generation of the reactive oxygen species by Aβ, treatment together with Aβ ([7]; 5 μM VEGF165 or 5 μM GST-HBD with 5 μM Aβ1-42): inhibitory effect on the generation of the reactive oxygen species by Aβ | binding to immobilized Aβ1-40 (surface plasmon resonance) [8]: much more strongly than other molecules that are known to bind to Aβs | binding to immobilized Aβ1-42 (surface plasmon resonance) [9]: much more strongly than other molecules that are known to bind to Aβs | bioactivity relative to VEGF121 [10]: 100 fold | sedimentation of VEGF in presence of Aβ40-1 [12]: did not cause extensive sedimentation of VEGF

Reference: US7795213B2 (POSCO, priority 2002, dated 2010)
